# Results published in patent US20100297256A1, “METHODS AND COMPOSITIONS FOR INHIBITING INTEGRINS USING TELLURIUM-CONTAINING COMPOUNDS” (priority 2007, published 2010).
# Columns and labels:
# West Nile Virus (WNV) [1] = assay: Western blot analysis of WNV protein synthesis (WNV-E protein); assay type: cell-based; conditions: Vero cells
# Description: Vero cells grown in 6-well plates (2×10^5 cells/well) were harvested and total cell extracts were prepared by suspension in 50 μl of ice-cold lysis buffer containing 50 mM Tris (pH 8.0), 150 mM NaCl, 1% NP-40, 0.1% SDS, 5 mM EDTA, 0.2 mM PMSF, 50 mM NaF, […] sodium vanadate, 5 mg/ml aprotinin and 5 mg/ml leupeptin. Cell lysates were boiled for 5 minutes and electrophoresed on 8% SDS-polyacrylamide gel, and were then transferred to a nitrocellulose membrane which was then incubated consecutively with a monoclonal antibody against the WNV envelope (WNV-E) protein and an anti-β-actin or anti-tubulin monoclonal antibody. The Nitrocellulose membranes were developed using horseradish peroxidase-conjugated secondary antibodies and the ECL detection system (Pierce, Rockford, Ill.). Quantitative evaluation of E protein calibrated against tubulin or β-actin was done by scanning and analysis using the Image-J program (www.//rsb.info.nih.gov/ij).
# West Nile Virus (WNV) [2] = assay: Cell-free virus assay; assay type: cell-based; conditions: Vero cells, 5 and 10 μg/ml 1 hour before infection, 1 hour after adsorption
# Description: Cells were plated 20 hours before virus infection in 6-well plates at a density of 2×10^5 cells/plate, and treated with AS101 (1-10 μg/ml) for 1 hour or for 5-10 minutes before WNV infection. The cells were infected at MOI=5 PFU/cell and incubated for 1 hour at 37° C., 5% CO2. Supernatants were collected immediately following the incubation, and the concentration of the virus which remained cell-free in the culture supernatant was measured by viral plaque assay, as described above.
# αVβ3 integrin = assay: Anti-αVβ3 integrin antibody binding assay; assay type: cell-based
# Description: An anti-αVβ3 integrin mediated cell adhesion kit (Millipore [Chemicon], Temecula, Calif.) was used to determine cells attachment to anti-αVβ3 integrin antibody, in the presence or absence of AS101. Briefly, Vero or BGM cells were mixed with PBS or with AS101 (1-10 μg/ml) and were added to anti-αVβ3 integrin coated 96-well plates, and to a control 96-well plate (containing anti-mouse IgG) in triplicate. The plates were incubated at 37° C., 5% CO2, for 2 hours, and the cells were then stained and extracted according to the kit instructions, using the staining solution and extraction buffer supplied with the kit. Cell concentration was measured by a spectrophotometer at 540 nm.
# U937 cells [3] = assay: AML chemotherapy resistance assay (XTT cell viability), U937; assay type: cell-based, human
# Description: Cell viability was determined using a cell proliferation kit (Roche), which colors viable cells using the tetrazolium salt XTT.
# 2×10^4 per 200 μl cells were seeded in 96-microwell flat bottom plates. After 24 hours, the tested compound(s) (e.g., AS101, ARA-C, DTNB, anti-VLA-4 antibody) was added, and the cells were incubated overnight with the tested compound(s). The XTT solution was then added and the cells were incubated for 4 hours at 37° C. Cell viability was than evaluated by measuring absorbance at 450 nm using a Microplate Spectrophotometer (Spectra MAX Plus, Molecular Devices).
# The role of VLA protein in fibronectin-induced resistance to chemotherapy was investigated by performing a chemotherapy resistance assay, as described hereinabove, with anti-VLA-4 and anti-VLA-5 antibodies. U937 cells were grown in fibronectin- and BSA-coated plates. Antibodies were added at a concentration of 1 μg/ml.
# U937 cells [4] = assay: Fluorescence-based flow cytometry analysis of cell death; set-up: species or system human
# Description: Fluorescence-based flow cytometry was used to measure the effect of tellurium-containing compounds on chemotherapy-induced cell death. Accumulation of cells in the sub-G1 fraction, increased proportion of annexin V-positive and propidium iodide-positive cells and increased caspase activity were each used as indicators of increased cell death, using standard procedures.
# Akt = assay: Western blot analysis of Akt; assay type: cell-based, human
# Description: Phosphorylation of Akt was determined by Western blot analysis.
# [5] = U937 on BSA, AS101 combined with ARA-C
# [6] = U937 on fibronectin, AS101 combined with ARA-C
# [7] = U937 on fibronectin, agent alone
smiles,measurement,setting,value
"Cl[TeH]1(Cl)(Cl)OCCO1 [AS101, ammonium trichloro(dioxyethylene-O,O′)tellurate]",level of cell-bound WNV-E protein (virus attachment),"West Nile Virus (WNV) [1]; 5 μg/ml, 5 and 15 minutes after virus adsorption",marked reduced the level of WNV-E protein
same,inhibition of virus protein (WNV-E) expression vs untreated cells,"West Nile Virus (WNV) [1]; 2 and 5 μg/ml, 8 hours after infection",2-3 fold
same,WNV infectious units in culture supernatant relative to untreated cells,West Nile Virus (WNV) [2],approximately twice
same,inhibition of binding of anti-αVβ3 integrin antibody to cells,"αVβ3 integrin; BGM cells, 10 μg/ml, data not shown",64%
same,binding of anti-αVβ3 integrin antibody to cells,"αVβ3 integrin; Vero cells, 1-10 μg/ml",inhibited the binding of anti-αVβ3 integrin antibody to Vero cells in a dose-dependent manner
same,effect on viability of cells exposed to ARA-C,"U937 cells [3]; U937, BSA-coated plates",neither AS101 nor anti-VLA-4 antibodies had an effect
same,additional sensitization to ARA-C in cells sensitized by anti-VLA-4 antibodies,"U937 cells [3]; U937, fibronectin-coated plates",no additional effect
same,sensitization to ARA-C-induced cell death,"U937 cells [3]; U937, fibronectin-coated plates, 0.5 or 1 μg/ml AS101",sensitized U937 cells to ARA-C-induced cell death on fibronectin-coated plates
same,"effect on viability of cells exposed to ARA-C, alone or in combination",U937 cells [3]; U937 on BSA,no effect either alone or in combination
same,"sensitization to ARA-C, combination of AS101 and DTNB vs either alone",U937 cells [3]; U937 on fibronectin,did not sensitize U937 cells grown on fibronectin to a greater degree than did either AS101 or DTNB alone
same,"caspase-3 activity, ARA-C and AS101 in combination vs ARA-C alone",U937 cells [4]; U937 on BSA,the same degrees of caspase-3 activity
same,percentage of annexin V-positive and propidium iodide-positive cells,U937 cells [4]; [5],only slightly above the percentage obtained with ARA-C alone
same,percentage of cells in the sub-G1 fraction,U937 cells [4]; [5],did not provide significantly different results than ARA-C alone
same,percentage of annexin V-positive and propidium iodide-positive cells,U937 cells [4]; [6],increased the percentage of annexin V-positive and propidium iodide-positive cells considerably
same,percentage of cells in the sub-G1 fraction,U937 cells [4]; [6],over 80%
same,percentage of cells with high caspase-3 activity,U937 cells [4]; [6],high percentage of cells with increased caspase-3 activity
same,percentage of annexin V-positive and propidium iodide-positive cells,U937 cells [4]; [7],no effect alone
same,percentage of cells in the sub-G1 fraction,U937 cells [4]; [7],no effect alone
same,percentage of cells with high caspase-3 activity,U937 cells [4]; [7],little or no effect
same,total amounts of Akt,Akt; U937,remained unchanged
same,level of phosphorylated Akt (pAkt),"Akt; U937 on fibronectin, dose-dependent",reduced the level of phosphorylated Akt
